Experimental findings from PubChem BioAssay (NCI) are described below.

Where “and” joins values, the source holds several entries; their conditions need not be identical. Identical values can stand only once.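 Dose response: 5 concentrations. Exposure: 48 h. Format: 96-well plates. Endpoint: linear interpolation; highest concentration if not reached. GI50: concentration for 50% inhibition of growth. TGI marks complete inhibition of growth.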

The first test relates to SNB-75 CNS. Description: DTP human tumour cell line panel, 48 h.
As a reminder, the TGI is the concentration giving total growth inhibition. Higher therefore signals lower sensitivity of the cells. For `CCCCCCCCCCCCCCCCCCOC[C@H](COP(=O)(O)O[C@H]1[C@H](O)[C@@H](O)[C@H](O)C[C@H]1O)OC`, the total growth inhibition concentration (TGI) is 59.6 µM and 27.9 µM.
Usually GI50 stands for the concentration at which growth is held to half of that of the control. As to `Nc1n[nH]c2cccc(C#Cc3cccc(NC(=O)c4cccc(C(F)(F)F)c4)c3)c12`, the GI50 was 2.79 µM and the concentration for total growth inhibition (TGI) is 18.6 µM.
Regarding `COCCOC(=O)C1=C(O)c2ccccc2S(=O)(=O)N1C`, the TGI worked out at 87.6 µM.
In the case of `CNC(=O)OCc1nc(SSC(C)(C)C)n(C)c1COC(=O)NC`, the TGI turned out to be 22.4 µM.
On the same count and under the same terms, the result for `CC(C)C(O)(C(C)C)C(C)C` reads above 100 µM.
Take `CC1(C)N=C(N)N=C(N)N1c1ccc(CCC(=O)Nc2ccc(S(=O)(=O)F)cc2)c(Cl)c1`: the GI50 is 9.75 µM and the concentration for total growth inhibition (TGI) was above 100 µM.
For `COC(=O)c1ccc2[nH]c(O)c(C(=Nc3ccc(N(C)C(=O)CN4CCN(C)CC4)cc3)c3ccc4c(c3)OCO4)c2c1`, in that order: 0.0752 µM and 1.65 µM.
Turning to `COc1ccc2c(c1)OC1=C(C(=O)OC1)C2c1cc(OC)c2c(c1)OCCO2` (centres undefined), the 50% growth inhibitory concentration (GI50) was 0.0346 µM and the TGI is above 100 µM.
Consider `N[C@H](C(=O)O)[C@@H]1CC(Cl)=NO1`, for which the TGI is above 1000 µM.
For the compound `Oc1ccc2ccccc2c1N=Nc1cccc2ccccc12`, the total growth inhibition concentration (TGI) was > 100 µM and 80.4 µM.
For the compound `COc1ccc2c(c1)NC1=C(C(=O)OC1)C2c1cc(OC)c(OC)c(OC)c1` (centres undefined), the concentration for 50% growth inhibition (GI50) is below 0.01 µM and the TGI is 40 µM.
The like results for `CCOc1cc(C(C)(C)C)ccc1C1=N[C@H](c2ccc(Cl)cc2)[C@H](c2ccc(Cl)cc2)N1C(=O)N1CCN(CC#Cc2cccc3c2CN([C@@H]2CCC(=O)NC2=O)C3=O)CC1` were, in that order, 0.1 µM and above 43.2 µM.
`NCCCNCCS` came in with a total growth inhibition concentration (TGI) above 100 µM.
Same read-out and setting: the same measure for `O=C1C(=O)c2ccccc2C(O)=C1C(C1=C(O)c2ccccc2C(=O)C1=O)c1ccc(Cl)cc1`: 9.83 µM; for `Nc1ncnc2c1ncn2C1C=C(CO)C(O)C1O` (centres undefined): 48.9 µM; for `O=C(O)CSCCc1ccccc1`: above 100 µM.
The same measure, in the same setting: the result for `O=NNc1ccc2ccccc2n1` reads above 100 µM; that for `COc1ccc(C(C#N)NC23CC4CC(CC(C4)C2)C3)cc1` (centres undefined), above 100 µM.
In the case of `CC(C)(C)c1cc([N+](=O)[O-])cc([N+](=O)[O-])c1O`, the concentration for total growth inhibition (TGI) was above 10 µM.
`Cc1cc(N(CC(C)Br)CC(C)Br)ccc1N=Nc1ccccc1C(=O)O` (centres undefined): the TGI turned out to be 11.2 µM.

In another test the test system is OVCAR-8 ovarian. Kind of test: DTP human tumour cell line panel, 48 h.
For `CCCCCCCCCCCCCCCCCCOC[C@H](COP(=O)(O)O[C@H]1[C@H](O)[C@@H](O)[C@H](O)C[C@H]1O)OC`, the GI50 was > 100 µM and 16.9 µM; the TGI was > 100 µM and 31.8 µM.
For `Nc1n[nH]c2cccc(C#Cc3cccc(NC(=O)c4cccc(C(F)(F)F)c4)c3)c12`, the GI50 was 4.82 µM and the concentration for total growth inhibition (TGI) came to 16.6 µM.
`COCCOC(=O)C1=C(O)c2ccccc2S(=O)(=O)N1C` came in with a TGI above 100 µM.
Same read-out and setting: the same measure for `CNC(=O)OCc1nc(SSC(C)(C)C)n(C)c1COC(=O)NC`: 5.35 µM.
`CC(C)C(O)(C(C)C)C(C)C` registered a TGI above 100 µM.
For the compound `CC1(C)N=C(N)N=C(N)N1c1ccc(CCC(=O)Nc2ccc(S(=O)(=O)F)cc2)c(Cl)c1`, the GI50 was 4.66 µM and the concentration for total growth inhibition (TGI) was above 100 µM.
As for `COC(=O)c1ccc2[nH]c(O)c(C(=Nc3ccc(N(C)C(=O)CN4CCN(C)CC4)cc3)c3ccc4c(c3)OCO4)c2c1`, the GI50 is 0.774 µM and the concentration for total growth inhibition (TGI) came to 7.34 µM.
On to `COc1ccc2c(c1)OC1=C(C(=O)OC1)C2c1cc(OC)c2c(c1)OCCO2` (centres undefined), for which the GI50 was 0.0712 µM and the total growth inhibition concentration (TGI) is above 100 µM.
For `N[C@H](C(=O)O)[C@@H]1CC(Cl)=NO1`, in that order: 22.2 µM and 502 µM.
On to `Oc1ccc2ccccc2c1N=Nc1cccc2ccccc12`, for which the concentration for total growth inhibition (TGI) is above 100 µM.
Regarding `COc1ccc2c(c1)NC1=C(C(=O)OC1)C2c1cc(OC)c(OC)c(OC)c1` (centres undefined), the 50% growth inhibitory concentration (GI50) is below 0.01 µM and the total growth inhibition concentration (TGI) is above 100 µM.
On to `CCOc1cc(C(C)(C)C)ccc1C1=N[C@H](c2ccc(Cl)cc2)[C@H](c2ccc(Cl)cc2)N1C(=O)N1CCN(CC#Cc2cccc3c2CN([C@@H]2CCC(=O)NC2=O)C3=O)CC1`, for which the GI50 is 0.157 µM and the total growth inhibition concentration (TGI) was above 31.8 µM.
Consider `NCCCNCCS`, for which the total growth inhibition concentration (TGI) is above 100 µM.
The same measure, in the same setting: the same measure for `O=C1C(=O)c2ccccc2C(O)=C1C(C1=C(O)c2ccccc2C(=O)C1=O)c1ccc(Cl)cc1`: 30.1 µM; for `Nc1ncnc2c1ncn2C1C=C(CO)C(O)C1O` (centres undefined): above 100 µM.
With `O=C(O)CSCCc1ccccc1`, the TGI is above 100 µM.
Consider `O=NNc1ccc2ccccc2n1`, for which the concentration for total growth inhibition (TGI) is above 100 µM.
Same read-out and setting: the result for `COc1ccc(C(C#N)NC23CC4CC(CC(C4)C2)C3)cc1` (centres undefined) reads above 100 µM.
In turn, `CC(C)(C)c1cc([N+](=O)[O-])cc([N+](=O)[O-])c1O` showed a TGI above 10 µM.
Same read-out and setting: the result for `Cc1cc(N(CC(C)Br)CC(C)Br)ccc1N=Nc1ccccc1C(=O)O` (centres undefined) reads above 52.4 µM.

A further test relates to SR leukemia. Description: DTP human tumour cell line panel, 48 h.
On to `CCCCCCCCCCCCCCCCCCOC[C@H](COP(=O)(O)O[C@H]1[C@H](O)[C@@H](O)[C@H](O)C[C@H]1O)OC`, for which the TGI was 45.9 µM and 40.8 µM.
`Nc1n[nH]c2cccc(C#Cc3cccc(NC(=O)c4cccc(C(F)(F)F)c4)c3)c12`: the GI50 is 3.95 µM and the TGI came to 55 µM.
The compound `COCCOC(=O)C1=C(O)c2ccccc2S(=O)(=O)N1C` showed a concentration for total growth inhibition (TGI) above 100 µM.
The compound `CNC(=O)OCc1nc(SSC(C)(C)C)n(C)c1COC(=O)NC` had a TGI of 5.54 µM.
Same read-out and setting: the same measure for `CC(C)C(O)(C(C)C)C(C)C`: above 100 µM.
`CC1(C)N=C(N)N=C(N)N1c1ccc(CCC(=O)Nc2ccc(S(=O)(=O)F)cc2)c(Cl)c1`: the concentration for 50% growth inhibition (GI50) was 0.179 µM and the TGI is above 100 µM.
On to `COC(=O)c1ccc2[nH]c(O)c(C(=Nc3ccc(N(C)C(=O)CN4CCN(C)CC4)cc3)c3ccc4c(c3)OCO4)c2c1`, for which the GI50 is 0.232 µM and the TGI was determined as 2.93 µM.
The like results for `COc1ccc2c(c1)OC1=C(C(=O)OC1)C2c1cc(OC)c2c(c1)OCCO2` (centres undefined) were, in that order, 0.0318 µM and above 100 µM.
For `N[C@H](C(=O)O)[C@@H]1CC(Cl)=NO1`, in that order: 3.44 µM and above 583 µM.
`Oc1ccc2ccccc2c1N=Nc1cccc2ccccc12` gave a TGI above 100 µM.
